Laboratory results from patent publication US12280047B2, “Treatment of aneurysms” (Georgia State Research Foundation, Inc., priority 2017, dated 2025).

Experiments:
Type in all cases: in vivo
[1] = tested on: ApoE−/− and ApoE−/−/IDO−/− mice; assay: Blood pressure and heart rate in AngII-infused mice; details: 4 weeks, mean ± s.e.m.; for sBP: AngII 1000 ng/min/kg; for Dbp / HR: AngII
Description: IDO^−/− and ApoE^−/− mice were obtained from Jackson laboratory (Bar Harbor, Maine) in a C57BL/6 background. IDO^−/− mice were crossed with ApoE^−/− mice to generate ApoE^−/−/IDO^−/− mice. Mice were housed in temperature-controlled cages under a 12-hour light/dark cycle and given free access to water and normal chow. All procedures involving animals were approved by the Institutional Animal Care and Use Committee at the University of Oklahoma Health Sciences Center. […] Circ Res. (2014) 114:480-92.
Circ Res. (2014) 114:480-92.
AngII-induced mouse AAA formation in the atherosclerotic-susceptible strain (ApoE^−/−) has become the most widely used model. See Qin Z, et al., Angiotensin II-induced TLR4 mediated abdominal aortic aneurysm in apolipoprotein E knockout mice is dependent on STAT3. J Mol Cell Cardiol. (2015) 87:160-70; Rateri D L, et al., Prolonged infusion of angiotensin II in ApoE (−/−) mice promotes macrophage recruitment with continued expansion of abdominal aortic aneurysm. Am J Pathol. (2011) 179:1542-8; Cassis L A, et al., ANG II infusion promotes abdominal aortic aneurysms independent of increased blood pressure in hypercholesterolemic mice. Am J Physiol Heart Circ Physiol. (2009) 296:H1660-5; Daugherty A and Cassis L A. Mouse models of abdominal aortic aneurysms. Arterioscler Thromb Vasc Biol. (2004) 24:429-34; Owens A P, 3rd, Rateri D L, Howatt D A, Moore K J, Tobias P S, Curtiss L K, Lu H, Cassis L A and Daugherty A. MyD88 deficiency attenuates angiotensin II-induced abdominal aortic aneurysm formation independent of signaling through Toll-like receptors 2 and 4. Arterioscler Thromb Vasc Biol. (2011) 31:2813-9. To unravel the role of the Trp-Kyn pathway in AAA formation ApoE^−/−/IDO^−/− (double-knockout) mice were generated and the outcome of a 4-week AngII infusion (1000 ng/min/kg) in ApoE^−/− and ApoE^−/−/IDO^−/− mice was determined. As depicted in Table 1 and 2, AngII infusion increased blood pressure without affecting the heart rate or any metabolic parameters.

[2] = tested on: ApoE−/− and ApoE−/−/IDO−/− mice; assay: AngII-induced AAA after reciprocal bone marrow transplants; details: AngII 1000 ng/min per kg, 4 weeks
Method: Bone marrow transplantation was performed as described previously (Lukasova M, et al., Nicotinic acid inhibits progression of atherosclerosis in mice through its receptor GPR109A expressed by immune cells. J Clin Invest. (2011) 121:1163-73; Duran-Struuck R and Dysko R C. Principles of bone marrow transplantation (BMT): providing optimal veterinary and husbandry care to irradiated mice in BMT studies. J Am Assoc Lab Anim Sci. (2009) 48:11-22). Bone marrow was obtained aseptically from femora and tibiae of ApoE^−/− or ApoE^−/−/IDO^−/− mice. Cells (5×10^6/mouse) were resuspended in sterile PBS and transplanted by intravenous infusion into lethally irradiated (10 Gy) ApoE^−/− or ApoE^−/−/IDO^−/− mice recipients 6 hours after irradiation at the age of 8 weeks.
To quantify AAA incidence and size, the maximum width of abdominal aorta was measure with Image Pro Plus software (Media Cybernetics). We quantified aneurysm incidence based on a definition of aneurysm as an external width of the suprarenal aorta that was increased by 50% or greater compared with aortas from saline-infused mice, as described previously (Sparks A R, et al., Imaging of abdominal aortic aneurysms. Am Fam Physician. (2002) 65:1565-70). The average diameter of the normal suprarenal aorta in control mice is 0.8 mm. We therefore set a threshold of 1.22 mm as evidence of aneurysm formation. […]

[3] = tested on: ApoE−/− mice; assay: Acipimox preventing AngII-induced abdominal aortic aneurysm (Example 12)
Method: To evaluate whether acipimox has inhibitory effects on AngII-induced AAA formation, male ApoE^−/− mice at age eight weeks were administrated either 1) acipimox (0.1% wt) or 2) vehicle control (water) by drinking water. After four weeks, Alzet osmotic mini pumps (Model 2004) were implanted into each group. Pumps were filled either with 1) saline vehicle or 2) solutions of Ang II (Sigma Chemical Co., St. Louis, Missouri, USA) that delivered (subcutaneously) 1.44 mg/kg/day of Ang II for 28 days. Pumps were placed into the subcutaneous space of isoflurane anesthetized mice through a small incision in the back of the neck that was closed with surgical glue. All incision sites healed rapidly without the need for any medication.
To quantify AAA incidence and size, the maximum width of abdominal aorta was measured with Image Pro Plus software (Media Cybernetics). Aneurysm incidence was quantified based on a definition of aneurysm as an external width of the suprarenal aorta that was increased by 50% or greater compared with aortas from saline-infused mice. The average diameter of the normal suprarenal aorta in control mice is 0.8 mm. […]
Abdominal aorta dimeter was measured by ultrasound as described above.
The effect of acipimox on the speed of propagation (i.e. PWV), which is parameter for arterial stiffness, was analyzed.

For “Angiotensin II (DRVYIHPF; Angiotensin-2; UniProt P01019 25-32, looked up) [AngII, Angiotensin II (Sigma, A9525) infused to induce AAA in mice]”, the sBP ([1]; Apoe−/− mice) was 149.1 ± 19.5 mm Hg, the sBP ([1]; Apoe−/−/IDO−/− mice) was 155.6 ± 18.4 mm Hg and the Dbp ([1]; Apoe−/− mice) was 112.7 ± 17.3 mmHg. The HR ([1]; Apoe−/− mice) was 471 ± 42 Beats/min, the Dbp ([1]; Apoe−/−/IDO−/− mice) was 119.1 ± 14.9 mmHg and the HR ([1]; Apoe−/−/IDO−/− mice) was 453 ± 43 Beats/min. The AAA incidence ([2]; ApoE−/− mice transplanted with IDO−/− or IDO+/+ bone marrow cells) was “approximately 70%”, the AAA incidence ([2]; ApoE−/−/IDO−/− mice transplanted with IDO−/− or IDO+/+ bone marrow cells) was 20% and the mortality rate ([3]; Ang II 1.44 mg/kg/day 28 days, with acipimox 0.1% wt or vehicle) was 28.6%. For the same substance, the “mice that developed AAA (AAA incidence)” value ([3]; Ang II 1.44 mg/kg/day s.c. 28 days, acipimox 0.1% wt or vehicle in drinking water, started four weeks before) was “Eighty”.
